For four compounds, LC retention time results are on record in the RepoRT retention time repository (doi:10.1016/j.jchromb.2020.122105).

What all share (conditions): stereoisomer not certain
Data set [1] can be described thus: RP, Waters CORTECS T3, 100 × 2.1 mm, 2.7 µm, 0.3 mL/min, estimated dead time 0.73 min; A: water + 0.1% formic acid, pH 3; B: methanol + 0.1% formic acid, pH 3; gradient (min/%B) 0/0 5/0 25/100 30/100 30.1/0 35/0.
Experiment in data set [2]: as above
The source holds these as a separate data set.

The nature of data set [3]: RP, Waters CORTECS T3, 100 × 2.1 mm, 2.7 µm, 0.2 mL/min, estimated dead time 1.1 min; A: water + 0.1% formic acid, pH 3; B: methanol + 0.1% formic acid, pH 3; gradient (min/%B) 0/0 1/0 6/5 30/100 35/100 35.1/0 40/0.
Experiment in data set [4]: as above
This is another data set of the same source.

Data set [5] in a line: RP, Waters CORTECS T3, 100 × 2.1 mm, 2.7 µm, 0.15 mL/min, estimated dead time 1.5 min; A: water + 0.1% formic acid, pH 3; B: methanol + 0.1% formic acid, pH 3; gradient (min/%B) 0/0 1/0 6/5 30/100 35/100 35.1/0 40/0.
Data set [6] in a line: RP, Waters CORTECS T3, 100 × 2.1 mm, 2.7 µm, 0.25 mL/min, estimated dead time 0.88 min; A: water + 0.1% formic acid, pH 3; B: methanol + 0.1% formic acid, pH 3; gradient (min/%B) 0/0 1/0 6/5 30/100 35/100 35.1/0 40/0.
Data set [7] is described as follows: RP, Waters ACQUITY UPLC BEH C18, 100 × 2.1 mm, 1.7 µm, 0.2 mL/min, estimated dead time 1.1 min; A: water + 0.1% formic acid, pH 3; B: methanol + 0.1% formic acid, pH 3; gradient (min/%B) 0/5 5/5 25/100 30/100 30.1/5 35/5.
Data set [8] can be described thus: RP, Waters ACQUITY UPLC BEH C18, 100 × 2.1 mm, 1.7 µm, 0.1 mL/min, estimated dead time 2.2 min; A: water + 0.1% formic acid, pH 3; B: methanol + 0.1% formic acid, pH 3; gradient (min/%B) 0/5 5/5 25/100 30/100 30.1/5 35/5.
A short description of data set [9]: RP, Waters ACQUITY UPLC BEH C18, 100 × 2.1 mm, 1.7 µm, 0.1 mL/min, estimated dead time 2.2 min; A: water + 0.1% formic acid, pH 3; B: methanol + 0.1% formic acid, pH 3; gradient (min/%B) 0/5 5/5 25/95 25.1/100 35/100 35.1/5 45/5.
Experiment in data set [10]: as above
The source holds these as a separate data set.

Experiment in data set [11]: as above
This is another data set of the same source.

A short description of data set [12]: RP, Waters ACQUITY UPLC BEH C18, 100 × 2.1 mm, 1.7 µm, 0.2 mL/min, estimated dead time 1.1 min; A: water + 0.025% formic acid + 20 mM ammonium acetate + 0.055% ammonium hydroxide, pH 7; B: methanol; gradient (min/%B) 0/5 5/5 25/100 30/100 30.1/5 35/5.
Data set [13] in a line: HILIC, Merck SeQuant ZIC-HILIC, 150 × 2.1 mm, 5 µm, 0.75 mL/min, estimated dead time 0.44 min; A: water + 0.1% acetic acid + 10 mM ammonium acetate, pH 4; B: 5% water + 95% acetonitrile + 0.1% acetic acid + 10 mM ammonium acetate, pH 4; gradient (min/%B) 0/95 5/95 20/57 25/57 30/95 40/95.
Data set [14] is described as follows: RP, Waters CORTECS T3, 100 × 2.1 mm, 2.7 µm, 0.3 mL/min, estimated dead time 0.73 min; A: water + 0.1% formic acid, pH 3; B: methanol + 0.1% formic acid, pH 3; gradient (min/%B) 0/5 5/5 25/100 30/100 30.1/5 35/5.
Data set [15] in a line: RP, Waters CORTECS T3, 100 × 2.1 mm, 2.7 µm, 0.1 mL/min, estimated dead time 2.2 min; A: water + 0.1% formic acid, pH 3; B: methanol + 0.1% formic acid, pH 3; gradient (min/%B) 0/0 1/0 6/5 30/100 35/100 35.1/0 40/0.
The nature of data set [16]: RP, Waters CORTECS T3, 100 × 2.1 mm, 2.7 µm, 0.3 mL/min, estimated dead time 0.73 min; A: water + 0.1% formic acid, pH 3; B: methanol + 0.1% formic acid, pH 3; gradient (min/%B) 0/0 1/0 6/5 30/100 35/100 35.1/0 40/0.
A short description of data set [17]: RP, Waters CORTECS T3, 100 × 2.1 mm, 2.7 µm, 0.1 mL/min, estimated dead time 2.2 min; A: water + 0.1% formic acid, pH 3; B: methanol + 0.1% formic acid, pH 3; gradient (min/%B) 0/5 5/5 25/95 25.1/100 35/100 35.1/5 45/5.
The nature of data set [18]: RP, Waters CORTECS T3, 100 × 2.1 mm, 2.7 µm, 0.3 mL/min, estimated dead time 0.73 min; A: water + 0.1% formic acid, pH 3; B: methanol + 0.1% formic acid, pH 3; gradient (min/%B) 0/5 5/5 25/95 25.1/100 35/100 35.1/5 45/5.
A short description of data set [19]: RP, Waters CORTECS T3, 100 × 2.1 mm, 2.7 µm, 0.2 mL/min, estimated dead time 1.1 min; A: water + 0.045% formic acid + 0.11% ammonium hydroxide, pH 7; B: methanol; gradient (min/%B) 0/5 5/5 25/95 25.1/100 35/100 35.1/5 45/5.
Data set [20] in a line: RP, Waters ACQUITY UPLC BEH C18, 100 × 2.1 mm, 1.7 µm, 0.1 mL/min, estimated dead time 2.2 min; A: water + 0.045% formic acid + 0.11% ammonium hydroxide, pH 7; B: methanol; gradient (min/%B) 0/5 5/5 25/95 25.1/100 35/100 35.1/5 45/5.
Data set [21] in a line: RP, Waters ACQUITY UPLC BEH C18, 100 × 2.1 mm, 1.7 µm, 0.2 mL/min, estimated dead time 1.1 min; A: water + 0.025% formic acid + 20 mM ammonium acetate + 0.055% ammonium hydroxide, pH 7; B: methanol; gradient (min/%B) 0/5 5/5 25/100 30/100 30.1/5 35/5. This is another data set of the same source.
Data set [22] is described as follows: HILIC, Waters XBridge BEH Amide, 100 × 2.1 mm, 2.5 µm, 0.5 mL/min, estimated dead time 0.44 min; A: water + 0.1% acetic acid + 10 mM ammonium acetate, pH 4; B: 5% water + 95% acetonitrile + 0.1% acetic acid + 10 mM ammonium acetate, pH 4; gradient (min/%B) 0/95 5/95 20/57 25/57 30/95 40/95.
Data set [23] is described as follows: RP, Thermo Scientific Hypercarb, 150 × 2.1 mm, 5 µm, 0.1 mL/min, estimated dead time 3.3 min; A: water + 0.1% formic acid, pH 3; B: methanol + 0.1% formic acid, pH 3; gradient (min/%B) 0/5 5/5 20/100 35/100 35.1/5 45/5.
Data set [24] can be described thus: RP, Waters CORTECS T3, 100 × 2.1 mm, 2.7 µm, 0.25 mL/min, estimated dead time 0.88 min; A: water + 0.1% formic acid, pH 3; B: methanol + 0.1% formic acid, pH 3; gradient (min/%B) 0/5 5/5 25/95 25.1/100 35/100 35.1/5 45/5.

As for `Nc1ccn(C2OC(CO)C3OP(=O)([O-])OC32)c(=O)n1` (centres undefined) [CYTIDINE 2',3'-CYCLIC MONOPHOSPHATE], the LC retention time in [1] is 0.89 min; in [2], 0.89 min; in [3], 1.34 min; in data set [4], 1.35 min; in data set [5], 1.78 min; in [6], 1.09 min. In addition, the LC retention time in [7] was 1.34 min; in [8] it was 2.74 min; in data set [9] it was 2.66 min; in data set [10] it was 2.67 min; in [11], 2.72 min; in [12] it was 1.36 min. Also, in data set [13], the LC retention time is 12.1 min.

As for `Cc1cc2nc[nH]c2cc1C` [DIMETHYLBENZIMIDAZOLE], the LC retention time in [14] is 10.4 min; in [1], 11.4 min; in data set [3], 13.4 min; in [15] it was 11.8 min; in data set [5], 14.7 min; in data set [16], 12 min. Further, the LC retention time in [6] was 12.6 min; in [17], 15.1 min; in data set [18] it was 10.5 min; in data set [8], 15.2 min; in data set [19], 16.5 min; in data set [9] it was 15.7 min. The LC retention time in data set [11] is 15.6 min; in [20], 20.5 min; in data set [21], 16.6 min; in data set [22], 0.65 min.

For the compound `CCCCCCCCCCCC(=O)OC(CC(=O)[O-])C[N+](C)(C)C` (centres undefined) [LAUROYLCARNITINE], the LC retention time in [14] is 20 min; in data set [1], 20.3 min; in data set [3], 24.7 min; in [15] it was 21.8 min; in [5] it was 25.7 min; in data set [16], 23.4 min. The LC retention time was 23.9 min in [6]; 24.5 min in [17]; 28.5 min in data set [23]; 20.6 min in data set [18]; 24.5 min in data set [8]; 22.8 min in [19]. The LC retention time in data set [9] was 25.8 min; in [11], 25.7 min; in [20], 26.6 min; in data set [21], 22.8 min.

For the compound `Cc1cc2nc3[nH]c(=O)[nH]c(=O)c3nc2cc1C` [LUMICHROME], the LC retention time in [14] was 14.6 min; in [1] it was 15.3 min; in data set [3], 18.3 min; in data set [15], 16.3 min; in [4], 18.3 min; in data set [5] it was 19.6 min. Further, the LC retention time in data set [6] is 17.5 min; in data set [17] it was 19.6 min; in data set [18] it was 15 min; in data set [7], 16 min; in [24], 15.5 min; in data set [8], 19.1 min. Moreover, the LC retention time is 16.4 min in data set [19]; 19.6 min in [9]; 19.6 min in [10]; 19.6 min in [11]; 19.5 min in [20]; 13.1 min in [12]. Besides, the LC retention time in [21] is 16 min.
